The text below walks through data of patent US10231452B2, “Thiopicolinamide compounds with fungicidal activity” (Dow AgroSciences LLC, priority 2016, dated 2019).

SMILES strings stand for the structures. Read-outs that look alike come from different tables or passages of the source.

The subject of one series is Zymoseptoria tritici. Briefly: Fungicidal activity: leaf blotch of wheat (SEPTTR), disease control on wheat seedlings. The following applies: wheat (Yuma); for pest or weed control at 100 ppm: high volume application; for pest or weed control at 121.5 g/ha: low volume application, 121.5 g/H. Format: in vivo. How it is done: Evaluation of Fungicidal Activity: Leaf Blotch of Wheat (Zymoseptoria Tritici; Bayer Code […]) Technical grades of materials were dissolved in acetone, which were then mixed with nine volumes of water (H2O) containing 110 ppm Triton X-100. The fungicide solutions were applied onto wheat seedlings using an automated booth sprayer to run-off. All sprayed plants were allowed to air dry prior to further handling. All fungicides were evaluated using the aforementioned method for their activity vs. all target diseases, unless stated otherwise. Wheat leaf blotch and brown rust activity were also evaluated using track spray applications, in which case the fungicides were formulated as EC formulations, containing 0.1% Trycol 5941 in the spray solutions. Wheat plants (variety Yuma) were grown from seed in a greenhouse in 50% mineral soil/50% soil-less Metro mix until the first leaf was fully emerged, with 7-10 seedlings per pot. These plants were inoculated with an aqueous spore suspension of Zymoseptoria tritici either prior to or after fungicide treatments. After inoculation the plants were kept in 100% relative humidity (one day in a dark dew chamber followed by two to three days in a lighted dew chamber at 20° C.) to permit spores to germinate and infect the leaf. The plants were then transferred to a greenhouse set at 20° C. for disease to develop. When disease symptoms were fully expressed on the 1st leaves of untreated plants, infection levels were assessed on a scale of 0 to 100 percent disease severity. Percent disease control was calculated using the ratio of disease severity on treated plants relative to untreated plants.

The next series relates to Puccinia triticina. The experiment in a line: Fungicidal activity: wheat brown rust (PUCCRT), disease control on wheat seedlings. Format: in vivo. Conditions: wheat (Yuma); for pest or weed control at 100 ppm: high volume application; for pest or weed control at 121.5 g/ha: low volume application, 121.5 g/H. How it is done: Technical grades of materials were dissolved in acetone, which were then mixed with nine volumes of water (H2O) containing 110 ppm Triton X-100. The fungicide solutions were applied onto wheat seedlings using an automated booth sprayer to run-off. All sprayed plants were allowed to air dry prior to further handling. All fungicides were evaluated using the aforementioned method for their activity vs. all target diseases, unless stated otherwise. Wheat leaf blotch and brown rust activity were also evaluated using track spray applications, in which case the fungicides were formulated as EC formulations, containing 0.1% Trycol 5941 in the spray solutions.
Evaluation of Fungicidal Activity: Wheat Brown Rust (Puccinia Triticina; Synonym: Puccinia recondita f. Sp. Tritici; Bayer Code PUCCRT)
Wheat plants (variety Yuma) were grown from seed in a greenhouse in 50% mineral soil/50% soil-less Metro mix until the first leaf was fully emerged, with 7-10 seedlings per pot. These plants were inoculated with an aqueous spore suspension of Puccinia triticina either prior to or after fungicide treatments. After inoculation the plants were kept in a dark dew room at 22° C. with 100% relative humidity overnight to permit spores to germinate and infect the leaf. The plants were then transferred to a greenhouse set at 24° C. for disease to develop. Fungicide formulation, application and disease assessment followed the procedures as described in the Example A. The results of the evaluation are shown below in Table 4.

The next series relates to Phakopsora pachyrhizi. Briefly: Fungicidal activity: Asian soybean rust (PHAKPA), disease control on soybean seedlings. Format: in vivo. The following applies: soybean (Williams 82). How it is done: Evaluation of Fungicidal Activity: Asian Soybean Rust (Phakopsora pachyrhizi; Bayer Code PHAKPA)
Technical grades of materials were dissolved in acetone, which were then mixed with nine volumes of H2O containing 0.011% Tween 20. The fungicide solutions were applied onto soybean seedlings using an automated booth sprayer to run-off. All sprayed plants were allowed to air dry prior to further handling.
Soybean plants (variety Williams 82) were grown in soil-less Metro mix, with one plant per pot. Two weeks old seedlings were used for testing. Plants were inoculated either 3 days prior to or 1 day after fungicide treatments. Plants were incubated for 24 h in a dark dew room at 22° C. and 100% relative humidity then transferred to a growth room at 23° C. for disease to develop. Disease severity was assessed on the sprayed leaves.

Setting [1] is: 24 h, 1 day protectant, read-out: SEPTTR 1DP disease control, HV activity at 100 ppm.
Setting [2] is: 72 h, 3 day curative, read-out: SEPTTR 3DC disease control, HV activity at 100 ppm.
The mark [3] stands for this setting: 24 h, 1 day protectant, read-out: PUCCRT 1DP disease control, HV activity at 100 ppm.
Setting [4] is: 72 h, 3 day curative, read-out: PUCCRT 3DC disease control, HV activity at 100 ppm.
Where [5] appears, read: 24 h, 1 day protectant, read-out: SEPTTR 1DP disease control, LV activity at 121.5 g/H.
The mark [6] stands for this setting: 72 h, 3 day curative, read-out: SEPTTR 3DC disease control, LV activity at 121.5 g/H.
The mark [7] stands for this setting: 24 h, 1 day protectant, read-out: PUCCRT 1DP disease control, LV activity at 121.5 g/H.
Where [8] appears, read: 72 h, 3 day curative, read-out: PUCCRT 3DC disease control, LV activity at 121.5 g/H.

For `COc1ccnc(C(=S)N[C@@H](C)C(=O)O[C@@H](C)[C@H](Oc2ccc(C)cc2)C2CCCC2)c1O` [Compound 38], the melting point lay in the range of 49 to 57 °C. In the series on Zymoseptoria tritici (setting [1]), the pest or weed control at 100 ppm was more than 80%. The pest or weed control at 100 ppm in the series on Zymoseptoria tritici (setting [2]) is not above 80%. In addition, in the series with Puccinia triticina (setting [3]), the pest or weed control at 100 ppm is more than 80%. In the series on Puccinia triticina (setting [4]), the pest or weed control at 100 ppm is more than 80%.
Compound `COc1cc(C)ccc1C(c1ccc(F)cc1OC)[C@H](C)OC(=O)[C@H](C)NC(=S)c1nccc(OC)c1O` (some centres unmarked) [Compound 29] gave a melting point of 60 to 72 °C. In the series with Zymoseptoria tritici (setting [1]), the pest or weed control at 100 ppm was more than 80%. Also, the pest or weed control at 100 ppm in the series with Zymoseptoria tritici (setting [2]) is more than 80%. In the series with Puccinia triticina (setting [3]), the pest or weed control at 100 ppm is more than 80%. The pest or weed control at 100 ppm in the series with Puccinia triticina (setting [4]) was more than 80%.
Regarding `CCCCC[C@@H](OC(=O)[C@H](C)NC(=S)c1nccc(OC)c1OC(C)=O)[C@H](C)Oc1ccccc1` [Compound 41], the pest or weed control at 121.5 g/ha in the series with Zymoseptoria tritici (setting [5]), in the series with Zymoseptoria tritici (setting [6]), in the series with Puccinia triticina (setting [7]) and in the series on Puccinia triticina (setting [8]) was more than 80% in each case.
Consider `COc1cc(C)ccc1C(c1ccc(F)cc1OC)[C@H](C)OC(=O)[C@H](C)NC(=S)c1nccc(OC)c1OC(C)=O` (some centres unmarked) [Compound 65], for which the pest or weed control at 121.5 g/ha in the series on Zymoseptoria tritici (setting [5]), with Zymoseptoria tritici (setting [6]), in the series with Puccinia triticina (setting [7]) and in the series on Puccinia triticina (setting [8]) was more than 80% in each case. Further, the pest or weed control at 25 ppm was more than 80% in the series with Phakopsora pachyrhizi (24 h, 1 day protectant, read-out: PHAKPA 1DP disease control at 25 ppm) and not above 80% with Phakopsora pachyrhizi (72 h, 3 day curative, read-out: PHAKPA 3DC disease control at 25 ppm).

As usually defined, the melting point is the temperature, or range, at which the solid turns liquid.
